One data set concerns P. aeruginosa 26314. As to the kind of experiment: Time-kill kinetics, P. aeruginosa 26314. Type of data set: cell-based, Pseudomonas aeruginosa. The procedure:
(§1) Time kill assays were performed in triplicate, meaning that every value is the average of three different samplings. Time–kill kinetic assays were performed using P. aeruginosa (26314), MRSP E104 and/or MRSP C22963 to determine the cell killing activity of B1 and two of its most promising analogues (compounds 23 and 26) based on prior antimicrobial susceptibility testing. The method reported by Blondeau et al.[63] was followed with minor modifications. […] After 0, 15, 30, 60, 120, 180 and 300 min of growth, 100 μL aliquots were collected and 10-fold serially diluted. Twenty μL of cell suspension from each dilution were spotted in triplicate on blood agar plates followed by 16–18 h incubation at 37 °C and determination of colony forming units (CFU).

For the next data set, the system named is MRSP C22963. As to the kind of experiment: Time-kill kinetics, MRSP C22963. Type of data set: cell-based, Staphylococcus pseudintermedius. The settings on record: for time to complete killing of the MRSP strain: all tested concentrations at or above the MIC. As for the experimental part:
Time kill assays were performed in triplicate, meaning that every value is the average of three different samplings. Time–kill kinetic assays were performed using P. aeruginosa (26314), MRSP E104 and/or MRSP C22963 to determine the cell killing activity of B1 and two of its most promising analogues (compounds 23 and 26) based on prior antimicrobial susceptibility testing. The method reported by Blondeau et al.[63] was followed with minor modifications. Briefly, the assay was performed in MHB II with concentrations corresponding to 0.5, 1, 2 and 4 times the MIC of the strain. After 0, 15, 30, 60, 120, 180 and 300 min of growth, 100 μL aliquots were collected and 10-fold serially diluted. Twenty μL of cell suspension from each dilution were spotted in triplicate on blood agar plates followed by 16–18 h incubation at 37 °C and determination of colony forming units (CFU).

Another data set has as its system S. aureus strains. Format: cell-based, Staphylococcus aureus. The note with it: 18 h. The source says:
For antibacterial spectrum the following strains were used: Corynebacterium auriscanis, 31551, (54 C6, dog, ear, 2013); Enterococcus faecalis, 27404, (17 C7, dog, wound, 2011); Enterococcus faecium, 30951, (24 C1, dog, ear, 2013); Streptococcus canis, 26740-1, (14 H1, dog, ear, 2010); Staphylococcus aureus, 27266, (16 G9, dog, skin, 2010); Staphylococcus aureus, 27266, (16 G9, dog, skin, 2010); Staphylococcus pseudintermedius 22963, (3 B9, dog, 2007). Acinetobacter baumannii, 27065, (16 D1, dog, wound, 2010); E. coli, 30235, 23 A6, dog, wound, 2012; Klebsiella pneumoniae, 26233, (11 H5, dog, wound, 2010); Pasteurella canis, 31096, (24 C8, dog, skin, 2013); Proteus mirabilis, 25178, (9 A4, dog, ear, 2009); Pseudomonas aeruginosa 26314, 12 C5, dog, urine, 2010). […] 25054, (8 G6, dog, wound, 2009); 27266, (16 G9, dog, skin, 2010 also used in exp above); 28264,(20 B1, dog, wound, 2011); 30935, (24 B9, dog, joint, 2013); 36968, (61 A9, dog, wound, 2016); 37595,(65 D2, dog, joint, 2016); 37708-2, (66 C6, dog, skin, 2016); 38200, (68 E9, dog, skin, 2016); 38565-1, (70 A5, dog, skin, 2017); 38841, (70 G5, dog, urine, 2017). MIC determination was performed by broth microdilution according to the Clinical and Laboratory Standard Institute (CLSI, […]-A3, 2008)[62]. In brief, each bacterial strain was diluted to concentration of 5 × 10^5 CFU/mL in Mueller Hinton broth II (MHB II) media (Oxoid) and added to a two-fold serial dilution of peptides and peptide-peptoid hybrids concentrations ranging from 1 to 64 μg/ml in 96-well plates (Nunc Internationals, Rochester, NY). The MICs were determined as a lowest concentration showing no visible growth after incubation for 18 hours at 37 °C. Experiments were performed in triplicates on two different days.

The format of data set [1] is cell-based, human. The settings on record: human.
A further data set relates to human red blood cells. Format: cell-based. The settings on record: for EC50: red cells of human, 1 h.
For data set [2], the system named is DNA synthesis in MRSP E104. As to the kind of experiment: Macromolecule biosynthesis rate, DNA (3H-Thymidine). Format: cell-based, Staphylococcus pseudintermedius. The settings on record: MRSP E104, 1.5 µg/mL, 20 min. The procedure:
Macromolecule biosynthesis rate was measured in MRSP E104 following a protocol adapted from Ling et al.[65]. Briefly, E104 overnight culture was sub-cultured 1:100 in MHB II and grown up to OD 0.2 at 600 nm. Cells were pelleted down by centrifugation and resuspended in fresh medium followed by incubation for 20 min with B1 or nisin at 1.5 µg/ml and 1.25 µg/ml, respectively, and radiolabeled precursor: (50µCi) 3H-Thymidine (PerkinElmer) and (5µCi) 3H-glucosamine hydrochloride per ml for DNA and cell wall, respectively. A positive control without antimicrobial was maintained. After incubation, samples were precipitated with equal volume of cold 30% TCA (Sigma) on ice. Precipitates were filtered on a membrane filter and subsequently subjected to two washes of cold 15% TCA and two washes of cold water using vacuum manifold. Subsequently, filters were air dried overnight and then transferred to 10 ml scintillation vials. Finally, scintillation fluid (3 ml) was added to each vial and ^3H count was taken in Beckman Coulter LS6500 liquid scintillation counter for one minute. The radioactive counts of the control samples were considered to have 100% precursor incorporation and macromolecule synthesis. The percentage rates of the antimicrobial-exposed samples were calculated accordingly. Each experiment was performed with replicates and the average rates of incorporation were plotted.

In another data set the test system is MRSP E104. Nature of the data set: Time-kill kinetics, MRSP E104. Format: cell-based, Staphylococcus pseudintermedius. As for the experimental part:
as §1

In brackets after ≈: the same amount, converted by molar mass. Entries after “also recorded” stand apart in the source; their conditions may differ. Square brackets hold non-standard residues; d marks the D form. Peptide text beside a SMILES is read from it. N(1-naphthylmethyl)Gly = O=C(O)CNCc1cccc2ccccc12; 2Nal = N[C@@H](Cc1ccc2ccccc2c1)C(=O)O; d1Nal = N[C@H](Cc1cccc2ccccc12)C(=O)O; N(4-MeBn)Gly = Cc1ccc(CNCC(=O)O)cc1; dNle = CCCC[C@@H](N)C(=O)O; Nle = CCCC[C@H](N)C(=O)O; NBuGly = CCCCNCC(=O)O

For `CCCC[C@H](NC(=O)[C@H](CCCCN)NC(=O)[C@H](CCCCN)NC(=O)[C@@H](N)CCCCN)C(=O)N[C@@H](Cc1ccc2ccccc2c1)C(=O)N[C@@H](Cc1ccccc1)C(=O)N[C@@H](Cc1ccc2ccccc2c1)C(N)=O` [Compound 23, Lys-Lys-Lys-Nle-(2-Nal)Ala-Phe-(2-Nal)Ala] (H-KKK[Nle][2Nal]F[2Nal]-NH2), in the data set with P. aeruginosa 26314 (up to highest tested concentration (8x MIC)), the “complete killing of P. aeruginosa” value is “not able to completely kill; also recorded: not able to eliminate”. For the same molecule, the “time to complete killing of the MRSP strain” value with MRSP C22963 was at most 2 h. In addition, in the data set with S. aureus strains, the “MIC S. aureus strain 25054” value came out at 64 µg/mL (≈ 60.6 µM), the “MIC S. aureus strain 27266” value is 32 to 64 µg/mL, the “MIC S. aureus strain 28264” value is reported as 64 µg/mL (≈ 60.6 µM) and the “MIC S. aureus strain 30935” value came out at 64 µg/mL (≈ 60.6 µM). In the data set on S. aureus strains, the “MIC S. aureus strain 36968” value was determined as 64 µg/mL (≈ 60.6 µM), the “MIC S. aureus strain 37595” value is given as over 64 µg/mL, the “MIC S. aureus strain 37708-2” value was 32 µg/mL (≈ 30.3 µM) and the “MIC S. aureus strain 38200” value was found to be 64 µg/mL (≈ 60.6 µM). Besides, in the data set on S. aureus strains, the “MIC S. aureus strain 38565-1” value is 64 µg/mL (≈ 60.6 µM) and the “MIC Staphylococcus aureus” value was found to be 32 µg/mL (≈ 30.3 µM). For the same molecule, the hemolysis at 1 h, 150 µM in data set [1] was 59%. Further, in the data set with human red blood cells, the “Haemolysis EC10” value is given as 14 µM and the half-maximal effective concentration (EC50) amounted to 104 µM.

In the case of `CCCC[C@@H](NC(=O)[C@H](CCCCN)NC(=O)[C@H](CCCCN)NC(=O)[C@@H](N)CCCCN)C(=O)N[C@H](Cc1cccc2ccccc12)C(=O)N[C@H](Cc1ccccc1)C(=O)N[C@H](Cc1cccc2ccccc12)C(N)=O` [Compound 26, Lys-Lys-Lys-nle-(1-Nal)ala-phe-(1-Nal)ala] (H-KKK[dNle][d1Nal][dF][d1Nal]-NH2; N-terminus assumed), in the data set on MRSP C22963 (0.5x MIC), the “time to complete killing of MRSP C22963” value is on record as at most 1 h. Further, the “time to complete killing of the MRSP strain” value in the data set on MRSP C22963 is listed as at most 2 h. Moreover, in the data set with S. aureus strains, the “MIC S. aureus strain 25054” value is over 64 µg/mL, the “MIC S. aureus strain 27266” value came to 64 µg/mL (≈ 60.6 µM), the “MIC S. aureus strain 28264” value was over 64 µg/mL and the “MIC S. aureus strain 30935” value is on record as over 64 µg/mL. Moreover, in the data set with S. aureus strains, the “MIC S. aureus strain 36968” value was over 64 µg/mL, the “MIC S. aureus strain 37595” value was over 64 µg/mL, the “MIC S. aureus strain 37708-2” value is over 64 µg/mL and the “MIC S. aureus strain 38200” value is on record as over 64 µg/mL. Further, in the data set with S. aureus strains, the “MIC S. aureus strain 38565-1” value is recorded as over 64 µg/mL and the “MIC Staphylococcus aureus” value amounted to 64 µg/mL (≈ 60.6 µM). For the same molecule, the hemolysis at 1 h, 150 µM in data set [1] was 56%. This molecule also registered an EC50 in the data set with human red blood cells of 63 µM.

As to `CCCCN(CC(=O)N[C@@H](CCCCN)C(=O)N(CC(=O)N(CC(=O)N(CC(N)=O)Cc1cccc2ccccc12)Cc1ccc(C)cc1)Cc1cccc2ccccc12)C(=O)[C@H](CCCCN)NC(=O)[C@@H](N)CCCCN` [B1, Lys-Lys-(NBu)Gly-Lys-(N1-Nal)Gly-(N4-MeBn)Gly-(N1-Nal)Gly] (H-KK[NBuGly]K[N(1-naphthylmethyl)Gly][N(4-MeBn)Gly][N(1-naphthylmethyl)Gly]-NH2), the “killing of P. aeruginosa 26314” value with P. aeruginosa 26314 (1x MIC, delayed re-growth) is given as “did not eliminate”. For the same molecule, the figures for the “time to kill P. aeruginosa 26314” value with P. aeruginosa 26314 (2x MIC) and with P. aeruginosa 26314 (4x MIC) were 24 h and 2 h, respectively. For the same molecule, the “time to kill P. aeruginosa” value in the data set on P. aeruginosa 26314 (8 x MIC) is listed as “less than 30 min”. Further, the “effect on DNA replication” value in data set [2] was “without affecting DNA replication; also recorded: no effect on DNA replication”. Further, the “MIC Staphylococcus aureus” value against S. aureus strains is reported as 8 µg/mL (≈ 7.47 µM). Moreover, the “MICs for the three S. aureus isolates tested” value in the data set with S. aureus strains is 4 to 8 µg/mL. Also, the hemolysis at 1 h, 150 µM in data set [1] is 32%. Also, the “Haemolysis EC10” value in the data set on human red blood cells was 64 µM. In the data set with human red blood cells, the EC50 came out at 230 µM. The “time to complete killing of MRSP E104” value in the data set on MRSP E104 (2 × MIC) amounted to 2 h; in the data set with MRSP E104 (4 × MIC), 1 h. The “time to kill MRSP” value in the data set with MRSP E104 (8 x MIC) is “less than 30 min”.

Values taken from publication PMC6403271, “Characterization, mechanism of action and optimization of activity of a novel peptide-peptoid hybrid against bacterial pathogens involved in canine skin infections” (Scientific Reports, 2019).
